# Several values for one entry are separate records, joined by “and”; a condition that tells them apart may be missing. Equal values may be shown once.
# System: IL-6
# Assay: IL-6 secretion in coculture of human aged fibroblasts and mature adipocytes (AM3D-FB2D, ELISA)
# Assay type: cell-based
# Details: for secretion of IL-6 in percentage of the coculture control condition, Values (%): individual replicates
# Excerpt: In order to evaluate its effect on fibroblast matrix and its anti-inflammatory properties, the effect of compound 6 has been tested on an adipocytes-aged fibroblasts coculture model, mimicking the interactions between dermis and hypodermis in the skin and allowed to explore in parallel the biological effects of the products on two cellular targets.
# • Experimental model: co-culture of human mature adipocytes cultured in 3D and human dermal fibroblasts cultured in 2D (AM3D-FB2D co-culture). This experimental model of AM3D-FB2D co-culture mimicked the interactions between dermis and hypodermis in the skin and allowed to explore in parallel the biological effects of the products on two cellular targets. • Donor characteristics: This study was performed on mature adipocytes and fibroblasts from two different donors (one donor for mature adipocytes and another donor for dermal fibroblasts). • Fibroblasts donor=person, BMI=28 kg/m^2 • Adipocytes donor=person, BMI=21.4 kg/m^2 • Treatment procedure: compound 6 was added to the co-culture medium daily for up to 6 days
# Dermal fibroblasts were seeded in DMEM 10% FBS at 10000 cells/well. The day after, the adipocytes capsules of 50 μl were added in suspension above the fibroblasts and the medium was changed and replaced by a specific culture medium for the co-culture AM3D-FB2D. The formation of adipocytes capsules followed an internal standardized protocol. Briefly, the fully mature adipocytes were isolated from the hypodermis after digestion by collagenase. The isolated adipocytes were then washed with a wash buffer and encapsulated in a peptidic hydrogel to form 3D adipocytes capsules of 50 μl in size. Cells were incubated at 37° C. and 5% CO2 overnight for stabilization. Treatments were initiated at DO with a medium change at DO, D2, D3 and D5. The entire culture media of 24 h incubation was collected at D3 and D6, before being centrifugated and stored at −80° C. Each culture condition was done in triplicate.
# The biochemical analyses on culture media were performed via ELISA using specific kits according to the manufacturer's recommendations: IL-6 (Duoset DY206, R&D Systems), and Hyaluronic Acid (HA) (Duoset, DY3614-05, R&D Systems and Procollagen I (Duoset, DY6220-05, R&D Systems) The results of HA and Procollagen I were normalized by fibroblasts cell number regarding the fact that these molecules were secreted mainly by fibroblasts. All the biochemical results were represented in percentage of the control condition.
# To evaluate the effect of the compound 6 on inflammation, the extracellular concentrations of IL-6, that is secreted by the fibroblasts but mainly by the adipocytes, were measured at D3 and D6.
smiles,measurement,setting,value
N[C@H]1CCCN(CC(F)(F)[C@]2(O)O[C@H](CO)[C@H](O)[C@H](O)[C@H]2O)C1=O [Compound 6],IL-6 secretion in percentage of the coculture control condition,"2 mg/ml, D3",72%
same,IL-6 secretion in percentage of the coculture control condition,"2 mg/ml, D6",53%
same,IL-6 secretion in percentage of the coculture control condition,"3 mg/ml, D3",73%
same,IL-6 secretion in percentage of the coculture control condition,"3 mg/ml, D6",61%
same,"secretion of IL-6 in percentage of the coculture control condition, Mean (%)","D3, 2 mg/ml",72%
same,"secretion of IL-6 in percentage of the coculture control condition, Values (%)","D3, 2 mg/ml",56% and 78% and 82%
same,"secretion of IL-6 in percentage of the coculture control condition, Mean (%)","D3, 3 mg/ml",73%
same,"secretion of IL-6 in percentage of the coculture control condition, Values (%)","D3, 3 mg/ml",75% and 63% and 79%
same,"secretion of IL-6 in percentage of the coculture control condition, Mean (%)","D6, 2 mg/ml",53%
same,"secretion of IL-6 in percentage of the coculture control condition, Values (%)","D6, 2 mg/ml",46% and 66% and 45%
same,"secretion of IL-6 in percentage of the coculture control condition, Mean (%)","D6, 3 mg/ml",61%
same,"secretion of IL-6 in percentage of the coculture control condition, Values (%)","D6, 3 mg/ml",59% and 54% and 71%
